The record followed here is US20240254135A1, “POLYPHENOL COMPOUNDS” (Epirium Bio Inc., priority 2022, published 2024).

Structures are written as SMILES.

Data set [1] is described as follows: Pharmacokinetics: quantitative determination in mice plasma (LCMS). It counts as in vivo, C57BL/6 Mice. Particulars: C57BL/6, mouse, 10 mg/kg PO single dose, 10% NMP vehicle; for AUC(0-t): read-out: AUC0-4 h. The protocol:
C57BL/6 Mice, Age 7-9 weeks, body weight range 20-25 g were used. The mice were fasted overnight. Mice were dosed once a day for a single day at 10 mg/kg, 10 mg/kg. 6 time-points were used for whole blood. 10% NMP was used as a vehicle. 9 animals were used per treatment, with three groups of three animals each. Group 1 had time points at 15 and 60 minutes, Group 2 had time points at 30 and 120 minutes, and Group 3 had time points at 90 and 240 minutes. An Oral (PO) route was used. Plasma and brain samples were collected (brain sample collected at terminal time point). Plasma was collected through the centrifugation of whole blood at 10,000 rpm for 10 minutes at 4° C. Samples were stored at −80° C. until processing.
1.00 mg/mL in 100% MeOH PP vials (prepared at RT yellow light) at 2-8° C. were used as stock solution. 12.22-50000 ng/ml using 80% MeOH PP vials (prepared at RT yellow light) at 2-8° C. were used as working solution. 0.98-4000 ng/ml (prepared at RT yellow light) was used for the curve range. For Compounds 75b and 78a, 1.00 mg/mL of Compound 79 in 100% methanol Ria vials (Prepared at RT yellow light) was used as IS stock solution, and 60 ng/ml of Compound 79 in 80% methanol (Prepared at RT yellow light) was used as IS working solution. For Compound 76b, 1.00 mg/mL of Compound 44 in 100% methanol Ria vials (Prepared at RT yellow light) was used as IS stock solution, and 60 ng/ml of Compound 44 in 80% methanol (Prepared at RT yellow light) was used as IS working solution. A linear, 1/x2 fit type was used. The injection volume was 15 μL. Mobile Phase A was 0.1% Formic Acid in water at room temperature. Mobile Phase B was 100% methanol at room temperature. R0 wash solution was 80% methanol at room temperature. R^3 wash solution was IPA/MeOH/ACN/water (1:1:1:1) at room temperature. The column was Agilent Eclipse 50*2.1 mm 1.8 μm and the instrument was Shimadzu LC-40 UPLC and AB Sciez 6500+ with LCMS002.
For Compound 75b, using a pipette with Methanol-rinsed pipette tips, 25 μL of each sample was aliquoted (calibration curve sample, QC samples and blank matrix) to labeled 12×75-mm glass tubes. Using Methanol-rinsed pipette tips, 5.0 μL of IS of conc. 60 ng (Compound 79) was aliquoted to each standards and samples except Blank. All tubes were mixed on a multi-tube vortex for approximately 30 seconds. 50 μL of 10 mM Sodium bicarbonate were added. 1 ml of Ethyl Acetate was added. All tubes were mixed on a multi-tube vortex for approximately 5 minutes then centrifuged for 10 min at 5,000 rpm, 4° C. The sample was kept in methanol containing dry ice for a few seconds to freeze the Aqueous layer (flash freeze method). The upper organic layer was poured from the frozen tubes into the labeled 12×75-mm glass tubes then evaporated to dryness under nitrogen using Liquid Evaporator (30° C., ˜15 psi, ˜10 mins). 200 μl of reconstitution solution (0.1% Acetic acid:MeOH (60:40 v/v) were added into each tube. Samples were vortexed for 30 seconds then transferred to amber glass injection vials for injection.
For Compounds 76b and 78a, using a pipette, 25 μL of each sample were aliquoted (calibration curve sample, QC samples and blank matrix) to labeled 1.5 ml eppendorfs. Using a pipette, 5.0 μL of IS of conc. 100 ng (Cocktail IS) was aliquoted to each standards and samples except Blank. All tubes were mixed on a multi-tube vortex for approximately 30 seconds. 1 ml of tert-butyl methyl ether (TBME) was added. All tubes were mixed on a multi-tube vortex for approximately 5 minutes then centrifuged for 10 min at 10,000 rpm, 4° C. The sample was kept in methanol containing dry ice for few seconds to freeze the Aqueous layer (flash freeze method). The upper organic layer was poured from the frozen tubes into the labeled 12×75-mm rial vials then vaporated to dryness under nitrogen using Liquid Evaporator (30° C., −15 psi, 10 mins). 200 μl of reconstitution solution (10 mM Ammonium Formate: MeOH) (40:60 v/v) was added into each tube. […]

In data set [2] the target is T1, mitochondrial ATP synthase (Mus musculus, UniProt P56480+Q03265).
T1 construct: from tissue; host or cells: mouse heart, isolated mitochondria (fresh or frozen)
Kind of data set: Maximal ATP hydrolysis capacity in frozen heart mitochondria. Particulars: frozen mitochondria (FIGS. 3 and 4). It counts as biochemical. The protocol: ATP hydrolysis capacity or state 4 acidification was measured using Seahorse XF96 as described in Divakaruni et al. (2018) Anal Biochem 552:60-65 and Acin-Perez et al. (2021) Life 11(9):949, in MAS (70 mM Sucrose, 220 mM Mannitol, 5 mM KH2PO4, 5 mM MgCl2, 1 mM EGTA, 2 mM HEPES; pH 7.2). Plates were loaded with 0.75-1.5 μg of mouse heart mitochondria, or 25 μg of cell lysate. Cell lysates were prepared by subjecting the samples to 4 cycles of free thaw (liquid nitrogen—37° C. water bath) before measuring protein concentration. When assessing compounds effect on respirometry, the compounds were added in MAS after sample centrifugation. Initial respiration of the samples was sustained by the addition of 5 mM succinate+2 μM rotenone in the MAS after centrifugation. Injections were performed at the following final concentration in the well: Antimycin A (2 μM), oligomycin (5 μM), FCCP (1 μM), ATP (20 mM). To assess maximal ATP concentration, ATP was injected consecutively.
An additional assay was developed to determine the maximal ATP hydrolysis capacity in frozen mitochondria. Maximal ATP hydrolytic capacity was assessed in frozen heart mitochondria where mitochondrial respiration is inhibited by Antimycin A and maximal ATP hydrolysis is driven by co-injection of FCCP and ATP, followed by inhibition in the presence of oligomycin.

One may read the Cmax as the peak of the concentration-time curve. As usually defined, the Tmax is the time at which the peak concentration occurs. Turning to `COc1cc(C2Oc3ccccc3CC2O)ccc1F` (single isomer, unassigned) [Compound 75b, 2-(4-fluoro-3-methoxyphenyl)chroman-3-ol], in data set [1], the concentration peaked (Cmax) at 138 ng/mL, the time of peak concentration (Tmax) came to 90 min and the AUC(0-t) was 133 ng·h/mL.
`Oc1cc(O)c2c(c1)OC(c1ccccc1)C(O)C2` (single isomer, unassigned) [Compound 78a, 2-phenylchromane-3,5,7-triol]: in data set [1], the peak concentration (Cmax) amounted to 49.8 ng/mL, the Tmax came out at 15 min and the AUC(0-t) stood at 59.5 ng·h/mL.
`Oc1ccc2c(c1)OC(c1ccc(O)c(C(F)(F)F)c1)C(O)C2` (single isomer, unassigned) [Compound 77b, 2-(4-hydroxy-3-(trifluoromethyl)phenyl)chromane-3,7-diol] displayed a decrease in hydrolysis in data set [2] of 25%.
With `Oc1cc(O)c2c(c1)OC(c1ccc(O)c(F)c1)C(O)C2` (single isomer, unassigned) [Compound 76b, 2-(3-fluoro-4-hydroxyphenyl)chromane-3,5,7-triol], in data set [1], the highest level (Cmax) was 89.3 ng/mL, the Tmax came to 15 min and the AUC(0-t) came to 45.7 ng·h/mL.
